Results: PMC9675976, “Selfish uptake versus extracellular arabinoxylan degradation in the primary degrader Ruminiclostridium cellulolyticum, a new string to its bow” (Biotechnology for Biofuels and Bioproducts, 2022)
“Also recorded” adds a separate entry of the source. Read-outs that look alike come from different tables or passages of the source.

Columns and labels:
XuaA [1] = target: T1, XuaA (Ruminiclostridium cellulolyticum, UniProt B8I0N3); test: Thermal shift assay (TSA) of XuaA with carbohydrate ligands; format: binding; settings: for Binding to XuaA (in words): screened by TSA, then ITC
T1 sequence (B8I0N3 entry or part of it): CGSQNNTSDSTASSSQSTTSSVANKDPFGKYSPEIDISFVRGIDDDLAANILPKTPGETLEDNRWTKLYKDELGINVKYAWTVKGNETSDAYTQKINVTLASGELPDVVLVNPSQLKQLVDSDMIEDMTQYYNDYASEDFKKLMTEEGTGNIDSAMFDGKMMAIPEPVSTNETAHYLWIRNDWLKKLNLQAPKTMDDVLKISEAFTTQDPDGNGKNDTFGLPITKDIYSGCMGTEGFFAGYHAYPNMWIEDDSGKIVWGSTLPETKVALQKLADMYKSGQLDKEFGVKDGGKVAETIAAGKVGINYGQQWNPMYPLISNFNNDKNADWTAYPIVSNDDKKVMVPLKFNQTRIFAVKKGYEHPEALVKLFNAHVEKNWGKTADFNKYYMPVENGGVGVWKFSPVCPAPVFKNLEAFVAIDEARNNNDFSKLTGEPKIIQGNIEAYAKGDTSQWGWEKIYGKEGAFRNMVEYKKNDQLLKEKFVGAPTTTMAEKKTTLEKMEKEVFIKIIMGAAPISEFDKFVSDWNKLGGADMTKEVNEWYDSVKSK
Method: (§1) XOS and AXOS were purchased from Megazyme: A^3X (ref O-A^3X), A^2XX (ref O-A^2XX), A^2,3XX (ref O-A^2,3XX), XA^3XX (ref O-XA^3XX), XA^2,3XX (ref O-XA^2,3XX), XAXXMIX (ref O-XAXXMIX), X2 to X6 (ref O-XBI, O-XTR, O-XTE, O-XPE, O-XHE, respectively) (Fig. 3) (Megazyme). For TSA experiments, monosaccharides, XOS and AXOS were tested at a final concentration of 1 mM or 0.1 mM (for X4, X5, and X6). Experiments were performed with XuaA (8 µM) in 25 mM phosphate buffer pH 7 and SYPRO orange (1/500) (Sigma-Aldrich). Melting curves were monitored from 10 to 90 °C with 0.5 °C increment every 30 s, on CFX96 touch real-time PCR detection system (Bio-Rad, France) and analyzed using the Bio-Rad CFX Maestro 1.1 software.

XuaA [2] = target: T1, XuaA; test: Isothermal titration calorimetry (ITC) of XuaA with ligands; format: binding; settings: 25 °C, 25 mM phosphate buffer pH 7.0
Method: as §1
A MicroCal PEAQ-ITC (Malvern, Malvern, UK) was used to determine thermodynamic parameters of the binding at 25 °C in 25 mM phosphate buffer, pH 7.0. The ligands (50–2000 µM) were injected (one injection with 0.4 µL followed by 18 injections of 2 µL) in the cell containing XuaA (5–50 µM) in the same buffer. At least one duplicate was performed.

XuaD = XuaD (Ruminiclostridium cellulolyticum, UniProt B8I0N6); test: Enzyme activity of XuaD on AXOS (HPAEC-PAD); format: biochemical; settings: for Products released by XuaD: HPAEC-PAD; for Specific activity (IU) of XuaD: substrate 1 mM, 37 °C
Chain of XuaD (B8I0N6 entry or part of it): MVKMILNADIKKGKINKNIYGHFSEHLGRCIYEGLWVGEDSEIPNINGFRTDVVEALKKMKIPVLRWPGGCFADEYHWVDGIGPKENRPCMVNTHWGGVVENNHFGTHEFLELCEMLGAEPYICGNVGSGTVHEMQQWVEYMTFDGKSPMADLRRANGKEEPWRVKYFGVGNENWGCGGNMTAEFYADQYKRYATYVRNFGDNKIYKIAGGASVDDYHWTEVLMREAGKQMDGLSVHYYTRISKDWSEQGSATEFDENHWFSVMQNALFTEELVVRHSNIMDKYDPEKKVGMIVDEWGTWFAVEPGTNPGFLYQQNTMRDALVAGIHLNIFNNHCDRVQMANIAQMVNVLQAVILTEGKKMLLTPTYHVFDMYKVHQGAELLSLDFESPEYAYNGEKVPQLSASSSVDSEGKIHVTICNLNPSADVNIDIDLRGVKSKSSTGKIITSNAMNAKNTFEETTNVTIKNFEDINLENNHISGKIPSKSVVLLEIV
Method: (§2) XuaD, E, F, G (0.01 to 1 µM) were tested with different AXOS and/or XOS at 1 mM with incubation times varying from 5 min to 24 h. Enzymes (10 nM) were incubated at 37 °C for 5 min, kinetic parameters of XuaD were determined with both A^2,3XX and A^2XX, with sugar concentration varying from 0.05 to 8 mM, and XuaE with A^2,3XX with sugar concentration varying from 0.05 to 1 mM (at least 9 concentration point). Substrates and released products were quantified by high performance anion exchange chromatography coupled with pulsed amperometric detection on an ICS-3000 using a PA1 column (Thermo Scientific). Sugars were eluted with the buffers 0.1 M NaOH and 0.5 M sodium acetate + 0.1 M NaOH as the eluants A and B, respectively, using the multistep procedure as follows: isochratic separation (5 min, 95% A + 5% B), separation gradient (8 min, 10–37% B), column wash (2 min, 99% B), and subsequent column equilibration (2.5 min, 95% A + 5% B).

XuaE = XuaE (Ruminiclostridium cellulolyticum, UniProt B8I0N8); test: Enzyme activity of XuaE on AXOS (HPAEC-PAD); format: biochemical; settings: for Products released by XuaE: HPAEC-PAD; for Specific activity (IU) of XuaE: substrate 1 mM, 37 °C
Method: as §2

XuaG = test: Enzyme activity of XuaG on AXOS and XOS (HPAEC-PAD); format: biochemical, Ruminiclostridium cellulolyticum; settings: substrate 1 mM, 37 °C
Method: as §2

XuaF = test: Enzyme activity of XuaF on AXOS and XOS (HPAEC-PAD); format: biochemical, Ruminiclostridium cellulolyticum; settings: substrate 1 mM, 37 °C
Method: as §2

[3] = substrate: OC[C@@H]1O[C@@H](O[C@@H]2[C@@H](O[C@@H]3O[C@@H](CO)[C@H](O)[C@H]3O)[C@H](O[C@@H]3CO[C@@H](O[C@@H]4COC(O)[C@H](O)[C@H]4O)[C@H](O)[C@H]3O)OC[C@H]2O)[C@H](O)[C@H]1O; test: Enzyme activity of XuaE on AXOS (HPAEC-PAD); format: biochemical, Ruminiclostridium cellulolyticum; settings: other: 37 °C, substrate 0.05 to 1 mM
Method: as §2

[4] = substrate: CC(=O)Oc1cccc2ccccc12; test: Esterase activity of XuaH; format: biochemical, Ruminiclostridium cellulolyticum; settings: other: 37 °C, pH 7, substrate 110 µM to 5.36 mM
Method: Esterase activity was tested using 1-Naphthyl acetate. Release of 1-Naphthol was monitored at 320 nm during 5 min at 37 °C in 25 mM phosphate buffer pH 7, with substrate final concentration ranging from 110 µM and 5.36 mM, and with XuaH (0.1 µM) or XuaJ (0.01 µM). Concentration of released 1-Naphthol during the first minute of the assay was determined based on 1-Naphthol standard curve.

[5] = XuaA 8 µM, ligand 1 mM or 0.1 mM (X4, X5, X6), 25 mM phosphate buffer pH 7, mean of at least 2 experiments
[6] = XuaE versus XuaD on the same substrate

| Molecule | TSA ∆T (XuaA [1]; [5]) | Products released by XuaD (XuaD) | Specific activity (IU) of XuaD (XuaD) | Specific activity (IU) of XuaG (XuaG) | Specific activity (IU) of XuaF (XuaF) | further results |
| --- | --- | --- | --- | --- | --- | --- |
| OC[C@H]1OC(O)[C@H](O)[C@@H](O)[C@@H]1O (stereo partly shown) [G, glucose] |  |  |  |  |  | ΔTm at 1000 µM (XuaA [1]; pH 7, read-out: TSA ∆T): 0 °C; Binding to XuaA (in words) (XuaA [1]): does not bind |
| OC[C@@H]1O[C@@H](O[C@@H]2[C@@H](O[C@@H]3O[C@@H](CO)[C@H](O)[C@H]3O)[C@H](O[C@@H]3CO[C@@H](O[C@@H]4COC(O)[C@H](O)[C@H]4O)[C@H](O)[C@H]3O)OC[C@H]2O)[C@H](O)[C@H]1O (stereo partly shown) [A^2,3XX] | 13.5 °C | Products: Ara, X3 | IU: 1256.3 ± 50.2 IU/µmol of enzyme | blocks the activity |  | ITC -T∆S (XuaA [2]): 15.1 ± 2.8 kcal/mol; ITC N (sites) (XuaA [2]): 0.796 ± 2.37e-2 sites; Kd (XuaA [2]): 12 ± 4.6 nM; Products released by XuaE (XuaE): Products: Ara, A^2XX, A^3XX?; Km of XuaE relative to XuaD (fold lower) (XuaE; [6]): 18 fold; kcat of XuaE relative to XuaD (XuaE; [6]): twofold lower; Specific activity (IU) of XuaE (XuaE): IU: 1938.0 ± 109.6 IU/µmol of enzyme |
| OC1OC[C@@H](O[C@@H]2OC[C@@H](O[C@@H]3OC[C@@H](O[C@@H]4OC[C@@H](O[C@@H]5OC[C@@H](O)[C@H](O)[C@H]5O)[C@H](O)[C@H]4O)[C@H](O)[C@H]3O)[C@H](O)[C@H]2O)[C@H](O)[C@H]1O (stereo partly shown) [X5] |  |  |  | IU: 6.2 ± 0.5 IU/µmol of enzyme | IU: 25.3 ± 0.7 IU/µmol of enzyme | ΔTm at 100 µM (XuaA [1]; pH 7, ligand 100 µM, Additional file 1, read-out: TSA ∆T): 0 °C |
| OC1OC[C@@H](O[C@@H]2OC[C@@H](O[C@@H]3OC[C@@H](O[C@@H]4OC[C@@H](O)[C@H](O)[C@H]4O)[C@H](O)[C@H]3O)[C@H](O)[C@H]2O)[C@H](O)[C@H]1O (stereo partly shown) [X4] | 0 °C |  |  | IU: 23.3 ± 0.5 IU/µmol of enzyme | IU: 87.2 ± 7.6 IU/µmol of enzyme |  |
| OC[C@@H]1O[C@@H](O[C@@H]2[C@@H](O[C@@H]3O[C@@H](CO)[C@H](O)[C@H]3O)[C@H](O[C@@H]3CO[C@@H](O[C@@H]4COC(O)[C@H](O)[C@H]4O)[C@H](O)[C@H]3O)OC[C@H]2O[C@@H]2OC[C@@H](O)[C@H](O)[C@H]2O)[C@H](O)[C@H]1O (stereo partly shown) [XA^2,3XX] | 14 °C | Products: Ara, X4 | IU: 1.5 ± 0.03 IU/µmol of enzyme | IU: 20.3 ± 0.2 IU/µmol of enzyme | IU: 29.7 ± 2.8 IU/µmol of enzyme | ITC -T∆S (XuaA [2]): 4.8 ± 0.5 kcal/mol; ITC N (sites) (XuaA [2]): 1.05 ± 5.67e-2 sites; Kd (XuaA [2]): 15.9 ± 0.1 nM; Products released by XuaE (XuaE): Products: Ara, XA^2XX, XA^3XX; Specific activity (IU) of XuaE (XuaE): IU: 1927.2 ± 100.4 IU/µmol of enzyme |
| OC1OC[C@@H](O[C@@H]2OC[C@@H](O[C@@H]3OC[C@@H](O)[C@H](O)[C@H]3O)[C@H](O)[C@H]2O)[C@H](O)[C@H]1O (stereo partly shown) [X3, xylotriose] | 0 °C |  |  | IU: 24.5 ± 1.6 IU/µmol of enzyme | IU: 158.7 ± 21.1 IU/µmol of enzyme |  |
| OC1OC[C@@H](O[C@@H]2OC[C@@H](O)[C@H](O)[C@H]2O)[C@H](O)[C@H]1O (stereo partly shown) [X2, xylobiose] | 0 °C |  |  |  | not active |  |
| OC[C@@H]1O[C@@H](O[C@H]2[C@H](O[C@@H]3CO[C@@H](O[C@@H]4COC(O)[C@H](O)[C@H]4O)[C@H](O)[C@H]3O)OC[C@@H](O)[C@@H]2O)[C@H](O)[C@H]1O (stereo partly shown) [A^2XX] | 6.5 °C | Products: Ara, X3 | IU: 1263.0 ± 46.1 IU/µmol of enzyme | blocks the activity | IU: 202.3 ± 18.7 IU/µmol of enzyme |  |
| OC1OC[C@@H](O[C@@H]2OC[C@@H](O[C@@H]3OC[C@@H](O[C@@H]4OC[C@@H](O[C@@H]5OC[C@@H](O[C@@H]6OC[C@@H](O)[C@H](O)[C@H]6O)[C@H](O)[C@H]5O)[C@H](O)[C@H]4O)[C@H](O)[C@H]3O)[C@H](O)[C@H]2O)[C@H](O)[C@H]1O (stereo partly shown) [X6, Xylohexaose] | 0 °C |  |  |  |  | TSA ∆T (XuaA [1]; ligand 100 µM, Additional file 1): 0 °C |
| O=C[C@H](O)[C@@H](O)[C@H](O)CO [X, xylose] |  |  |  |  |  | ΔTm at 1000 µM (XuaA [1]; pH 7, ligand 1 mM, Additional file 1, read-out: TSA ∆T): 0 °C; Binding to XuaA (in words) (XuaA [1]): does not bind; also recorded: failed to bind |
| OC[C@@H]1O[C@@H](O[C@@H]2[C@@H](O)[C@H](O[C@@H]3CO[C@@H](O[C@@H]4COC(O)[C@H](O)[C@H]4O)[C@H](O)[C@H]3O)OC[C@H]2O[C@@H]2OC[C@@H](O)[C@H](O)[C@H]2O)[C@H](O)[C@H]1O (stereo partly shown) [XA^3XX] | 11.0 °C | Products: Ara, X4 | IU: 1218.9 ± 38.5 IU/µmol of enzyme | IU: 21.2 ± 0.2 IU/µmol of enzyme | IU: 166.7 ± 12.8 IU/µmol of enzyme | ITC -T∆S (XuaA [2]): 11.6 ± 1.2 kcal/mol; ITC N (sites) (XuaA [2]): 0.652 ± 2.83e-3 sites; Kd (XuaA [2]): 40.4 ± 9.3 nM; Products released by XuaE (XuaE): Products: Ara, X4 |
| XuaE (Ruminiclostridium cellulolyticum H10) (protein) MKIQNPIIWADMPDPDIIRVGDIYYMVSTTMFVMPGAPILKSKDLYHWELVSYVFNTIEDNDIYQLKNGKTAYGKGQWATSLRFFNGLYYACFVCHDMQKTYIYYTDDIEKSGWERYVINNVFHDMSFLFDNNRSYLIYGNGDIKIVELKDDLSGIKDGGVNQLLFSTPSENIMLRCEGCRAYKINGYYYLLFIEWPNDGNSRRRVVCYRSKDLLGEYDRKILLDDDMEYQNQGIAQGAIIDTPEGEWYSILFQDHGAVGRIPYLLPVSWEDDWPNLGVNEKVPESFEIPFEAYDTKPLIVSDSFNHNENKLDLRWQWNHNPEEDCWSFTEHPGYLRLRTQSLATDILTARNTLTQRTSGPQCAFSVELKTEGMKAGDYAGLVALQGNYGAIGIRADENNLKRIIVSKKGSDGRQIEEEYRLFADSRILIKIEFDFRNSSDIAKFYYSQDGIGWIKLGSDLHMTYTLDLFIGYRIGIFYYSQKAAGGFADFRNFSYESRQ |  |  |  |  |  | Km [3]: Km 0.1 ± 0.003 mM; kcat [3]: kcat 2253.5 ± 142.1 min^−1; kcat/Km [3]: kcat/Km 23137.8 ± 1355.0 min^−1 mM^−1 |
| XuaH (Ruminiclostridium cellulolyticum H10) (protein) MAIFQANFFAKTMKRSICFNALIPNDKYQAPDQEIKDEPKGPMKSIYLLHGYSGNHTDWLTWTKIQELSLKYNIAVFMPSGENFFYVDDEEVGAYYGELIGNELVDYTRSTFHLSDKREDTFIGGLSMGGYGAIRNGLKYSERFGRIIALSSALITNQIAGITPDFKGPVADYPYYRRVFGDLDRLLGGDKDPEALIRSLKEKNADIPKIYMACGTEDFLINENRELHEFLVSEKVEHTYIEDSGVHDWKFWNEYIDKGLAWATE |  |  |  |  |  | Km [4]: Km: 3.5 ± 1.1 mM; kcat [4]: kcat: 5435.7 ± 846.4 min^−1; kcat/Km [4]: kcat/Km: 1628.1 ± 295.7 min^−1 mM^−1 |
